According to PubChem BioAssay AID330 (DTP/NCI, 2004):
Where “and” joins values, the source holds several entries; their conditions need not be identical. Equal values may be shown once. Toxic doses and inconclusive results are not listed. The calls were made as follows: active = survival T/C of 150% or more; inactive = T/C below 125% in these data.

System: P388 leukemia ip, CD2F1 mice, survival T/C
Assay: NCI In Vivo Anticancer Drug Screen. Data for tumor model P388 Leukemia (intraperitoneal) in CD2F1 (CDF1) mice
Details: endpoint: median survival time, higher = longer survival
Outline: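 Mice carrying the transplanted tumor received test compound or vehicle. Survival was recorded in each group, and the value is the treated-group measurement divided by that of the vehicle-treated control group.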

[1] = dose: 15.0 mg/kg/injection, schedule: Q01DX005 (ip), vehicle: saline with Tween-80
[2] = dose: 30.0 mg/kg/injection, schedule: Q01DX005 (ip), vehicle: saline with Tween-80
[3] = dose: 60.0 mg/kg/injection, schedule: Q01DX005 (ip), vehicle: saline with Tween-80
[4] = dose: 240.0 mg/kg/injection, schedule: Q01DX005 (ip), vehicle: saline with Tween-80
[5] = dose: 50.0 mg/kg/injection, schedule: Q01DX009 (ip), vehicle: Klucel (hydroxypropylcellulose) (HPC)
[6] = dose: 100.0 mg/kg/injection, schedule: Q01DX009 (ip), vehicle: Klucel (hydroxypropylcellulose) (HPC)
[7] = dose: 50.0 mg/kg/injection, schedule: Q01DX009 (ip), vehicle: saline with Tween-80
[8] = dose: 100.0 mg/kg/injection, schedule: Q01DX009 (ip), vehicle: saline with Tween-80
[9] = dose: 200.0 mg/kg/injection, schedule: Q01DX009 (ip), vehicle: saline with Tween-80
[10] = dose: 50.0 mg/kg/injection, schedule: Q01DX005 (ip), vehicle: Klucel (hydroxypropylcellulose) (HPC)
[11] = dose: 100.0 mg/kg/injection, schedule: Q01DX005 (ip), vehicle: Klucel (hydroxypropylcellulose) (HPC)
[12] = dose: 200.0 mg/kg/injection, schedule: Q01DX005 (ip), vehicle: Klucel (hydroxypropylcellulose) (HPC)
[13] = dose: 120.0 mg/kg/injection, schedule: Q01DX005 (ip), vehicle: saline with Tween-80
[14] = dose: 50.0 mg/kg/injection, schedule: Q01DX005 (ip), vehicle: saline with Tween-80
[15] = dose: 100.0 mg/kg/injection, schedule: Q01DX001 (ip), vehicle: saline with Tween-80
[16] = dose: 200.0 mg/kg/injection, schedule: Q01DX001 (ip), vehicle: saline with Tween-80
[17] = dose: 50.0 mg/kg/injection, schedule: Q01DX009 (ip), vehicle: saline
[18] = dose: 100.0 mg/kg/injection, schedule: Q01DX009 (ip), vehicle: saline
[19] = dose: 100.0 mg/kg/injection, schedule: Q01DX005 (ip), vehicle: saline with Tween-80
[20] = dose: 200.0 mg/kg/injection, schedule: Q01DX005 (ip), vehicle: saline with Tween-80
[21] = dose: 400.0 mg/kg/injection, schedule: Q01DX009 (ip), vehicle: saline with Tween-80
[22] = dose: 400.0 mg/kg/injection, schedule: Q01DX001 (ip), vehicle: saline with Tween-80

Measured: T/C

CSc1cc(C)c(O)c(C)c1
inactive: dose: 100.0 mg/kg/injection, schedule: Q04DX003 (ip), vehicle: other 109 % of control | dose: 200.0 mg/kg/injection, schedule: Q04DX003 (ip), vehicle: other 100 % of control | dose: 400.0 mg/kg/injection, schedule: Q04DX003 (ip), vehicle: other 100 % of control

COc1ccc2c(c1)N(S(=O)(=O)c1ccc(C)cc1)CC1=C2CCP1(C)=O (centres undefined)
inactive: dose: 100.0 mg/kg/injection, schedule: Q01DX001 (ip), vehicle: saline 111 % of control | dose: 200.0 mg/kg/injection, schedule: Q01DX001 (ip), vehicle: saline 111 % of control | dose: 400.0 mg/kg/injection, schedule: Q01DX001 (ip), vehicle: saline 112 % of control

Cc1nn(C(N)=S)c(C)c1N=Nc1ccc(Cl)cc1Cl
inactive: dose: 50.0 mg/kg/injection, schedule: Q04DX002 (ip), vehicle: saline with Tween-80 101 % of control and 105 % of control | dose: 600.0 mg/kg/injection, schedule: Q04DX002 (ip), vehicle: saline with Tween-80 90 % of control

COc1ccc(Cl)c2c(N=Nc3ccccc3[N+](=O)[O-])c(O)[nH]c12
inactive: [1] 103 % of control | [2] 99 % of control | [3] 95 % of control | [4] 87 % of control

CC(C)N1C(C)c2ccccc2OS1=O (centres undefined)
inactive: [5] 99 % of control | [6] 108 % of control

Nc1nc(N)nc(N)n1 (tested in a mixture with another compound)
inactive: [7] 98 % of control | [8] 92 % of control | [9] 88 % of control

CC1C(c2ccccc2)NC(c2ccccc2)C(C)C1O (centres undefined)
inactive: [10] 101 % of control | [11] 98 % of control | [12] 105 % of control

COc1ccc2c(c1O)-c1cccc3c1[C@@H](C2)N(CCOC(=O)NCCCl)CC3
inactive: dose: 9.38 mg/kg/injection, schedule: Q04DX003 (ip), vehicle: distilled water + Tween-80 101 % of control | dose: 18.75 mg/kg/injection, schedule: Q04DX003 (ip), vehicle: distilled water + Tween-80 99 % of control | dose: 37.5 mg/kg/injection, schedule: Q04DX003 (ip), vehicle: distilled water + Tween-80 97 % of control | dose: 75.0 mg/kg/injection, schedule: Q04DX003 (ip), vehicle: distilled water + Tween-80 99 % of control | dose: 150.0 mg/kg/injection, schedule: Q04DX003 (ip), vehicle: distilled water + Tween-80 99 % of control | dose: 300.0 mg/kg/injection, schedule: Q04DX003 (ip), vehicle: distilled water + Tween-80 105 % of control

O=C(Nc1ccc(Cl)cc1)Nc1nnc(-c2cc([N+](=O)[O-])cc([N+](=O)[O-])c2)o1
inactive: [3] 98 % of control | [13] 92 % of control | [4] 86 % of control

O=C1C=CC(=CC=C2C=CN(CCCCCCCCCCCO)C=C2)C=C1
inactive: dose: 1.56 mg/kg/injection, schedule: Q01DX005 (ip), vehicle: saline with Tween-80 111 % of control | dose: 3.12 mg/kg/injection, schedule: Q01DX005 (ip), vehicle: saline with Tween-80 114 % of control and 118 % of control | dose: 6.25 mg/kg/injection, schedule: Q01DX005 (ip), vehicle: saline with Tween-80 121 % of control | dose: 7.5 mg/kg/injection, schedule: Q01DX005 (ip), vehicle: saline with Tween-80 109 % of control | dose: 12.5 mg/kg/injection, schedule: Q01DX005 (ip), vehicle: saline with Tween-80 118 % of control and 121 % of control | [1] 109 % of control and 111 % of control | [2] 118 % of control | [14] 100 % of control

COc1ccc(C2c3cc4c(cc3OC(C)(OC)C2C)OCO4)c(OC)c1OC (centres undefined)
inactive: [15] 94 % of control | [16] 94 % of control

CC(C)(C)C(=O)CP(=O)(O)O (tested in a mixture with another compound)
inactive: [17] 105 % of control | [18] 101 % of control

CCCN1COC(OCC)C(C)(C)C1 (centres undefined)
inactive: dose: 25.0 mg/kg/injection, schedule: Q01DX009 (ip), vehicle: saline with Tween-80 110 % of control | [9] 93 % of control

CC1(c2ccccc2)CCOCO1 (centres undefined)
inactive: [14] 106 % of control | [19] 98 % of control | [20] 104 % of control

Cc1[nH]c(=O)[nH]c(=O)c1CO
inactive: [7] 100 % of control | [8] 102 % of control | [9] 101 % of control | [21] 100 % of control

COC(=O)N/N=C\c1ccc(O)c(OC)c1
inactive: dose: 50.0 mg/kg/injection, schedule: Q04DX003 (ip), vehicle: saline 97 % of control | dose: 100.0 mg/kg/injection, schedule: Q04DX003 (ip), vehicle: saline 101 % of control | dose: 200.0 mg/kg/injection, schedule: Q04DX003 (ip), vehicle: saline 97 % of control | dose: 400.0 mg/kg/injection, schedule: Q04DX003 (ip), vehicle: saline 101 % of control

NCCSSc1ccccc1C(=O)O
inactive: [10] 102 % of control | [11] 105 % of control | [12] 112 % of control

Cc1cn2ccccc2c[n+]1=O
inactive: dose: 5.0 mg/kg/injection, schedule: Q01DX009 (ip), vehicle: saline sonified 104 % of control | dose: 10.0 mg/kg/injection, schedule: Q01DX009 (ip), vehicle: saline sonified 90 % of control

COc1ccc(/C=C/C(CCN(C)C)=N/NC(=S)Nc2ccc(Cl)cc2)cc1
inactive: [15] 89 % of control | [16] 90 % of control | [22] 90 % of control

Nc1nc(-c2cc3cc(Cl)ccc3o2)cs1
inactive: [5] 101 % of control | [6] 101 % of control | dose: 200.0 mg/kg/injection, schedule: Q01DX009 (ip), vehicle: Klucel (hydroxypropylcellulose) (HPC) 100 % of control

CCC(c1ccc(OC)cc1)C(NCC(=O)N/N=C1\C[C@@H]2[C@H](CC[C@]3(C)[C@@H](O)CC[C@@H]23)c2ccc(O)cc21)c1ccc(OC)cc1 (some centres undefined)
inactive: [15] 100 % of control | [16] 99 % of control | [22] 99 % of control

O=C1c2cccnc2-c2ncccc21
inactive: [3] 93 % of control | [13] 91 % of control

CC(=O)OC1CC(OC(C)=O)C(OC(C)=O)C(CS[As](C)C)O1 (centres undefined)
inactive: [7] 99 % of control | [8] 99 % of control | [9] 96 % of control

CCOC(=O)CCC#N
inactive: [17] 99 % of control and 105 % of control | [18] 107 % of control and 108 % of control | dose: 200.0 mg/kg/injection, schedule: Q01DX009 (ip), vehicle: saline 105 % of control and 106 % of control | dose: 400.0 mg/kg/injection, schedule: Q01DX009 (ip), vehicle: saline 100 % of control

CC1SC2(C(=O)Nc3ccccc32)N(c2ccc(Cl)cc2)C1=O (centres undefined)
inactive: [3] 101 % of control | [13] 103 % of control | [4] 96 % of control

CSC(=S)N/N=C(\C)c1nccnc1C
inactive: [14] 101 % of control | [19] 106 % of control | [20] 111 % of control

O=C(NC(CO)C(O)c1ccc(N=Nc2cccc3ccccc23)cc1)C(Cl)Cl (centres undefined)
inactive: [8] 95 % of control | [9] 104 % of control | [21] 104 % of control

O=C(/C=C/c1ccc(O)c(O)c1)NCC(=O)NC(Cc1ccccc1)C(=O)O (centres undefined)
inactive: [14] 99 % of control | [19] 100 % of control | [20] 103 % of control
